# According to patent US20120122908A1, “Novel C-4 Substituted Retinoids” (University of Maryland, priority 2000, published 2012):
# Like-named read-outs stand apart in the source and are kept apart here.
# Key:
# LNCaP cells = assay: LNCaP cell growth, compound in combination with ATRA; type: cell-based, human; details: for inhibition of proliferation of LNCaP cells: 10^−8 to 10^−5 M in combination with 10^−5 M ATRA, compared with no drug or ATRA only; for concentration(s) that prevent the LNCaP cells from increasing in number: in combination with 10^−5 M ATRA, tested 10^−8 to 10^−5 M
# Description: LNCaP cells are androgen-dependent cell cultures. PC-3 cells are androgen independent cell culture.
# LNCaP cells are transferred into ATRA-free medium 3 days prior to start of experiments. Medium consist of phenol red-free IMEM supplemented with 5% FBS and 1% P/S. Cell are then plated into 24-well culture plates (15000 cells per well) in 1 mL of same medium. After a 24-hour attachment period, the vehicle (ethanol) or ATRA (10^−5 M) alone or ATRA in combination with a novel compound at a range of concentrations are added to triplicate wells. Medium/treatments are changed every 3 days. After 9 days of treatment, cells are removed from the wells with typsin/EDTA and counted in a Coulter counter. Using well-known methods (Wouters W, Van Dun J, Dillen A, Coene M.-C, Cools W and De Coster R, Effects of liarozole, a new antitumoral compound an retinoic acid-induced inhibition of cell growth and on retinoic acid metabolism in MCF-7 breast cancer cells, Cancer Res 52: 2841-2846, 1992), one determines the inhibitory effect of the novel compounds on LNCaP cells grown with ATRA.
# ATRA 4-hydroxylase = ATRA 4-hydroxylase (Mesocricetus auratus, UniProt A0A1U7QD41); assay: Hamster liver microsome assay of ATRA metabolism (ATRA 4-hydroxylase inhibition); type: biochemical; details: hamster liver microsomes
# Description: Washed hamster liver microsomes were prepared as follows: Livers are removed from sacrificed animals, rinsed in ice-cold 0.9% NaCl solution and homogenized in a 3-fold volume of 0.25 M sucrose-0.05 M Tris-HCl (pH 7.4) using a blender. Microsomes are isolated by differential centrifugation (10,000×g, 20 minutes; 100,000×g, 60 minutes; 4° C.) using a well-known technique (Van Wauwe, J.; Van Nyen, G.; Coene, M-C.; Stoppie, P.; Cols, W.; Goossens, J, Borghgraef, P.; Janssen, P A J, Liarozole, an Inhibitor of Retinoic Acid Metabolism, Exerts Retinoid-Mimetic Effects, In Vivo. J. Pharmacol. Expt. Ther. 261, 773-779, 1992). The microsomes are suspended in PBS buffer (pH 7.4), in 1 ml aliquots and stored at −70° C. until required.
# The standard reaction mixture (total of 400 μl) is composed of assay buffer, 140 μl; microsomes, 100 μl ([…]); NADPH, 100 μl ([…]); and a C-4 substituted ATRA analog dissolved in DMSO, 40 μl. After a 3 minute preincubation at 37° C., the reaction is initiated by addition of 20 μl of [11,12-^3H]-ATRA (20 μCi/ml). The incubation is carried out for 30 minutes under oxygen with shaking in a water bath at 37° C. The reaction is stopped by acidification with 0.1 ml formic acid, and the samples are extracted (×2) with EtOAc (2 ml) containing 0.05% butylated hydroxyanisole. The combined organic extracts are evaporated in vacuo, dissolved in 200 μl of the mobile phase for HPLC. An aliquot is analyzed for tritium content by liquid scintillation spectrometry. Usually, >95% of the added radioactivity is recovered. Most of the samples (150 μl) are analyzed on a 10 (m C18 Bondapak column (3.9×300 mm, Millipore), eluted with a multi-linear gradient solvent system: i, MeOH—H2O—HCOOH (60:40:0.05) containing 10 mM ammonium acetate (100 (0%) and ii, MeOH (0 (100%) at 2 ml/min. The radioactivity is measured by an on-line radio-detector. The Rts of ATRA, 4-hydroxy-ATRA and 4-oxo-ATRA are determined by UV absorbance at 350 nm in separate cuvettes. Typically, 80±5% of [11, 12-^3H]ATRA is converted into the metabolites.
# The C-4 substituted ATRA analogs are tested at two concentrations, 500 and 1000 nM. IC50 and Ki values are determined.
# Incubation of [11,12-^3]ATRA with hamster liver microsomes as described above results in the formation of polar metabolites, including 4-hydroxy-ATRA and 4-oxo-ATRA (see FIG. 7A). […] VN/14-1RA inhibits cytochrome P450-dependent metabolism of ATRA.
# Table 2B represents repeated testing of some of the compounds in Table 2A and testing on additional compounds. For comparison, the IC50 values of liarozole and ketoconazole (known inhibitors of ATRA 4-hydroxylase) were also determined.
# CYP17 (17-lyase) = biological target: T1, CYP17 (17-lyase) (Homo sapiens, UniProt P05093); assay: Selectivity: effect on CYP17 (17-lyase); type: biochemical; details: concentration as high as 5 μM
# T1 sequence (P05093 1-508): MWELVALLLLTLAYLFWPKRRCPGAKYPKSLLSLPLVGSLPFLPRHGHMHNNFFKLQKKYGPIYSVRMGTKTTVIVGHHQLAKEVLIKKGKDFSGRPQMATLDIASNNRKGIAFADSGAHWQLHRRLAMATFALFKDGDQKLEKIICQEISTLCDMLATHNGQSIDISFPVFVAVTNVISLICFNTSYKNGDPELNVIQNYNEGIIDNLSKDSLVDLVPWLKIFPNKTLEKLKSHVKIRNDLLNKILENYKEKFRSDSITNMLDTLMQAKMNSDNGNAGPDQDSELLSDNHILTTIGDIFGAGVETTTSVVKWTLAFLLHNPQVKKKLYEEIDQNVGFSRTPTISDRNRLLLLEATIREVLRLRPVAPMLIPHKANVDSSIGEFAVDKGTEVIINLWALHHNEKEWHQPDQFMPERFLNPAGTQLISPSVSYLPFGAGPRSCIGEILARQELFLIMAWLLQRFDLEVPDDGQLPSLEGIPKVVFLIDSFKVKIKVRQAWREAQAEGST
# Description: (§1) The selectivity of the compounds of the present invention towards ATRA-4-hydroxylase was tested by measuring the effect on the key enzymes in the biosynthesis of estradiol and dehydroepiandrosterone, CYP19 (aromatase) and CYP17 (17-lyase), respectively.
# [1] = Pharmacokinetic studies in mice (plasma levels by HPLC); type: in vivo; details: mice, 10 mg/kg s.c.
# Description: FIG. 18: Plasma Levels in Balb/c Mice Following Dose of 10 mg/kg body weight Given s/c.
# Pharmacokinetic studies of VN/65-4 and VN/66-1 were measured in mice and were compared to VN/14-1 and VN/50A-1. Mice were dosed s.c. at 10 mg/kg using a vehicle, 45% β-cyclodextrin in water, and plasma levels were measured by HPLC. […] The results are summarized in Table 3 below and the profiles in FIG. 18.
# [2] = Effect of VN/65-4 on plasma elimination of ATRA; type: in vivo; details: mice, VN/65-4 10 mg/kg s.c. one hour before ATRA 1.0 mg/kg s.c.
# Description: FIG. 19: Plasma Concentration of ATRA (1 mg/kg) After a Dose of 10 mg/kg body weight of VN/65-4.
# To determine the ability of VN/65-4 to delay the velocity of plasma elimination of ATRA, mice were treated s.c. with VN/65-4 (10 mg/kg). One hour later, the mice were administered s.c. ATRA (1.0 mg/kg) and sacrificed at various time points. […] From these experiments it is believed that it is possible to improve ATRA efficacy by reducing its enhanced metabolism to increase endogenous levels.
# CYP19 (aromatase) = biological target: T2, CYP19 (aromatase) (Homo sapiens, UniProt P11511); assay: Selectivity: effect on CYP19 (aromatase); type: biochemical; details: concentration as high as 5 μM
# T2 sequence (P11511 1-503): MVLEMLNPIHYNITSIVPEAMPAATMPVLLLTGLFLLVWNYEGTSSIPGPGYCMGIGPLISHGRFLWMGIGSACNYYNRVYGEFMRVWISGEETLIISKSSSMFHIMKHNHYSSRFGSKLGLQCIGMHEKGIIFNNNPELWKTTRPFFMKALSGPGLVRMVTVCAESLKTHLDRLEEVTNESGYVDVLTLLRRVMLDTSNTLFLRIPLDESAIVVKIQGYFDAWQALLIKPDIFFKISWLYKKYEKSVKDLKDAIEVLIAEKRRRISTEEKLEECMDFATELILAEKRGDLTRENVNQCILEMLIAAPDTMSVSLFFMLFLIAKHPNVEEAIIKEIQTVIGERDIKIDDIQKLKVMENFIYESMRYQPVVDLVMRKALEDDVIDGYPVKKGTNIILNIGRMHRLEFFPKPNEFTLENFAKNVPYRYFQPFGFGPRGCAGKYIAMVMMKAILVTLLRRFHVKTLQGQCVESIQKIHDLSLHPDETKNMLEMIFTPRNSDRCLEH
# Description: as §1
# PC-3 tumors = assay: Growth of PC-3 tumors in male nude mice; type: in vivo; details: PC-3 xenografts
# Description: FIG. 20: Effect of ATRA and VN/50A-1 on PC 3 Tumor Volumes in Male Nude Mice
# The effects of VN/50A-1 on tumor growth was determined in mouse xenografts and compared to ATRA as the reference treatment (FIG. 20). Mice were grouped 35 days after cell inoculation when measurable tumor volume was approximately 500 mm^3. Total tumor volume in the control mice increased 5.4-fold over 7 weeks and tumor volume in the mice treated with ATRA increased by 3.2-fold (41% reduction compared with control). In the mice treated with VN/50A-1, tumor volume increased by 3.5-fold, which was 38% reduction versus control mice, which correlated well with accumulation of ATRA in plasma and in tumors. […] VN/50A-1 is completely eliminated from plasma within 3 hour of administration to mice (see FIG. 18). The inventive compounds with longer half-lives will have favorable bioavailability and are expected to be more efficacious.
# [3] = tested on: ATRA 4-hydroxylase activity in LNCaP cells; assay: Induction of ATRA metabolism in LNCaP cells; type: cell-based, human; details: LNCaP cells preincubated with 1.0 μM ATRA, 0.8 μM [3H]ATRA
# Description: FIG. 17: Metabolism of 0.8 μM 3H-ATRA Following Induction with 1 μM ATRA in LNCaP Cells.
# The potential of these cell lines to metabolize ATRA was investigated. […] LNCaP cells were preincubated with 1.0 μM ATRA for different time periods up to 48 hour. Following preincubation, ATRA metabolism was determined using 0.8 μM [11,12-^3H]ATRA. Induction of 4-hydroxylase activity ([^3H]ATRA metabolism was time-dependent with a fast onset and maximal induction achieved after a preincubation period of 18 hour (FIG. 17).
# [4] = Table 2A, initial testing, read-out: IC50 Value
# [5] = Table 2B, repeated testing and additional compounds, read-out: IC50 Value, Inhibition of ATRA 4-Hydroxylase
# Chain of ATRA 4-hydroxylase (A0A1U7QD41 entry or part of it): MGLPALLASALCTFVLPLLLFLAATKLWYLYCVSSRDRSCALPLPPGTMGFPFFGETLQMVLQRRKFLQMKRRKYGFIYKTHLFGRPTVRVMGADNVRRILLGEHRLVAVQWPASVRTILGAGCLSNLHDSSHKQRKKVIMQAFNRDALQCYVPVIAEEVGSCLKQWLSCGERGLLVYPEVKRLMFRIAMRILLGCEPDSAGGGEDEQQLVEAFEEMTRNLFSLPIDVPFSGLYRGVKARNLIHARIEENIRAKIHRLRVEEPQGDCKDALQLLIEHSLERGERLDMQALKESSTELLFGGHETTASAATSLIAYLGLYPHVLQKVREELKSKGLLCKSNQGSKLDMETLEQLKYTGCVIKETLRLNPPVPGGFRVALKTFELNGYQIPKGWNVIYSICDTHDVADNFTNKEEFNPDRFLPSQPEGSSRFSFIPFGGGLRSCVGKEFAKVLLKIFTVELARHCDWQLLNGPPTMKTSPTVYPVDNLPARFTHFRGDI
IC50 (ATRA 4-hydroxylase; [4]) [nM],IC50 (ATRA 4-hydroxylase; [5]) [nM],SMILES,inhibition of proliferation of LNCaP cells (LNCaP cells),concentration(s) that prevent the LNCaP cells from increasing in number (LNCaP cells),further results
880 ± 8,5 ± 0.25,"CC1=C(/C=C/C(C)=C/C=C/C(C)=C/C(=O)O)C(C)(C)CCC1n1cncn1 (racemic) [VN/16-1, (±)-4-(1H-1,2,4-triazol-1-yl)retinoic acid]",inhibit the proliferation of LNCaP cells better than no drug or ATRA only,10^−5 M,
,,"Clc1cccc(C(c2ccc3[nH]cnc3c2)n2ccnc2)c1 (stereo not drawn) [Liarozole, reference compound]",inhibit the proliferation of LNCaP cells better than no drug or ATRA only,10^−5 M,
,,"COC(=O)C=C(C)C=CC=C(C)C=CC1=C(C)C(n2ccnc2)CCC1(C)C (mixture of isomers) [VN/65-4, (±)-4-(1H-imidazol-1-yl)-13-cis-methylretinoate]",,,inhibition of CYP17 (17-lyase) (CYP17 (17-lyase)): barely inhibited; in vivo conversion to corresponding acid [1]: rapidly and completely converted to corresponding acid; rate of plasma elimination of ATRA [2]: delayed the rate of ATRA elimination significantly; inhibition of CYP19 (aromatase) (CYP19 (aromatase)): barely inhibited
,,"CC1=C(/C=C/C(C)=C/C=C/C(C)=C/C(=O)O)C(C)(C)CCC1 [ATRA, All-trans retinoic acid, reference compound]",,,"tumor weights versus control mice (PC-3 tumors): significantly (P<0.05) lower; reduction of tumor volume compared with control (PC-3 tumors; over 7 weeks): 41%; increase of total tumor volume (PC-3 tumors; over 7 weeks, control 5.4-fold): 3.2 fold; preincubation period for maximal induction of 4-hydroxylase activity [3]: 18 h"
680 ± 3,1 ± 0.05,"COC(=O)C=C(C)C=CC=C(C)C=CC1=C(C)C(n2cncn2)CCC1(C)C (racemic) [VN/13-1, (±)-4-(1H-1,2,4-triazol-1-yl)methyl retinoate]",,,
1620,25 ± 0.5,CC1=C(/C=C/C(C)=C/C=C/C(C)=C/C(=O)O)C(C)(C)CCC1n1cnnc1 (racemic) [VN/17-1],inhibit the proliferation of LNCaP cells better than no drug or ATRA only,All concentrations,
,10 ± 0.3,"COC(=O)C=C(C)C=CC=C(C)C=CC1=C(C)C(n2cnnc2)CCC1(C)C (racemic) [VN/13-2, (±)-4-(4H-1,2,4-triazole-1-yl)methyl retinoate]",,,
